Experiments:
tumor cells = assay: Viability of tumor cells at different concentrations of cyclopamine; assay type: cell-based; conditions: concentration suggested for conjugation to the collagen hydrogel scaffold
Procedure: (§1) The smoothened inhibitor, cyclopamine, was evaluated to determine the effective drug concentration required to induce apoptosis in tumor cells. The viability of the tumors cells was measured at different concentrations of cyclopamine. Healthy cells (e.g., neurons and glia) were not affected by exposure to the drug.

[1] = test system: Healthy cells (e.g., neurons and glia); assay: Effect of cyclopamine exposure on healthy cells; assay type: cell-based
Procedure: as §1

Q: How did the “effective drug concentration required to induce apoptosis in tumor cells” value (tumor cells) turn out when `CC1=C2C[C@H]3[C@@H](CC=C4C[C@@H](O)CC[C@@]43C)[C@@H]2CC[C@]12O[C@@H]1C[C@H](C)CN[C@H]1[C@H]2C` [cyclopamine] was run?
A: The value was 30 µM.

Q: And the “effect of exposure to the drug on healthy cells” value [1]?
A: The value was “not affected”.

Source: patent US11273250B2, “Devices, systems, and methods for excavating cancer cells” (GEORGIA TECH RESEARCH CORPORATION, priority 2010, dated 2022)
